PubChem BioAssay (NCI)
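All cell lines were grown in 96-well plates and treated with compound for 48 hours. GI50 marks 50% less growth. The concentration for full growth arrest is given as TGI.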

Tests used:
Assay in all cases: growth of human tumour cells (NCI), 48 h
SF-295 CNS = tested on: SF-295 CNS
786-0 renal = tested on: 786-0 renal
HCT-116 colon = tested on: HCT-116 colon
SF-268 CNS = tested on: SF-268 CNS
MDA-MB-231 breast = tested on: MDA-MB-231 breast
DU-145 prostate = tested on: DU-145 prostate
SNB-75 CNS = tested on: SNB-75 CNS
ACHN renal = tested on: ACHN renal
HOP-92 NSCLC = tested on: HOP-92 NSCLC
SK-MEL-5 melanoma = tested on: SK-MEL-5 melanoma

Compound	GI50 (SF-295 CNS) [µM]	TGI (SF-295 CNS) [µM]	GI50 (786-0 renal) [µM]	TGI (786-0 renal) [µM]	GI50 (HCT-116 colon) [µM]	TGI (HCT-116 colon) [µM]	GI50 (SF-268 CNS) [µM]	TGI (SF-268 CNS) [µM]	GI50 (MDA-MB-231 breast) [µM]	TGI (MDA-MB-231 breast) [µM]	GI50 (DU-145 prostate) [µM]	TGI (DU-145 prostate) [µM]	GI50 (SNB-75 CNS) [µM]	TGI (SNB-75 CNS) [µM]	GI50 (ACHN renal) [µM]	TGI (ACHN renal) [µM]	GI50 (HOP-92 NSCLC) [µM]	TGI (HOP-92 NSCLC) [µM]	GI50 (SK-MEL-5 melanoma) [µM]	TGI (SK-MEL-5 melanoma) [µM]
COCc1c(-c2cc3cc(C)cc(OC)c3s2)c2c(N)ncnn2c1CN1CCNC(=O)C1	3.05	21.5	5.86	82.9	5.08	44.4	4.3	> 100	6.11	61.4	4.99	> 100	2.13	17.8	4.31	55.5	1.29	5.92	6.16	18.6
CCc1ccc(CCC(=O)Nc2ncc(Cc3ccc(Cl)cc3)s2)o1	0.374	> 100	0.582	> 100	0.427	> 100	1.68	> 100	0.699	> 100	0.329	> 100	0.195	0.771	0.66	> 100	4.61	> 100	0.377	> 100
Cc1ccc(S(=O)(=O)SC(C)(C)C)cc1	–	> 100	–	31.8	–	31.8	–	> 100	–	47.6	–	> 100	–	> 100	–	98.1	–	> 100	–	> 100
O=C(Nc1ccccc1)Nc1ccc2cc3ccc(NC(=O)Nc4ccccc4)cc3nc2c1	1.82	3.72	1.64	3.34	0.232	0.615	1.68	3.54	1.4	2.8	2.41	7.49	1.97	3.73	3.57	> 100	1.58	3.2	1.65	3.11
